Results from EP4563579A1, “MACROCYCLIC EGFR INHIBITOR, AND PREPARATION METHOD THEREFOR AND PHARMACEUTICAL USE THEREOF” (Abbisko Therapeutics Co., Ltd., priority 2022, dated 2024).

Key:
A431 WT = assay: Cell proliferation assay (CellTiter-Glo), A431 WT; format: cell-based; conditions: Homo sapiens, A-431; A431 WT cells, 72 hour incubation, CTG readout
Outline: (§1)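 Cells seeded overnight, then exposed 72 h at 37 °C, 5% CO2 to nine 3.16-fold dilutions (top final 10 µM, 0.1% DMSO), triplicate wells. Viability read by CellTiter-Glo luminescence, with a T0 plate read at dosing; IC50 (nM) by non-linear sigmoidal regression.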

[1] = system: Ba/F3 EGFR-L858R-T790M-C797S (LTC); assay: Cell proliferation assay (CellTiter-Glo), Ba/F3 LTC; format: cell-based; conditions: Mus musculus, BaF3; Ba/F3 EGFR-L858R-T790M-C797S cells, 72 hour incubation, CTG readout
Outline: as §1

[2] = system: Ba/F3 EGFR-DEL19-T790M-C797S (DTC); assay: Cell proliferation assay (CellTiter-Glo), Ba/F3 DTC; format: cell-based; conditions: Ba/F3 EGFR-DEL19-T790M-C797S cells, 72 hour incubation, CTG readout; read-out: IC50 BaF3 DTC
Protocol: (§2) • DMEM Medium (Gibco, Cat#11965118) • RPMI1640 Medium (Gibco, Cat#11875119) • Fetal Bovine Serum (FBS) (GBICO, Cat#10099-141) • CellTiter-Glo® Luminescent Cell Viability Assay Kit (Promega, Cat#G7572) 96-well, Black, Clear Flat Bottom Plate (Corning®, Cat# 3603)
(§3) • SpectraMax Multimode Microplate Reader MD, 2104-0010A; • CO2 Incubator, Thermo Scientific 3100 Series; • Biosafety Cabinet, Thermo Scientific, 1300 Series A2; • Inverted Microscope, Olympus, CKX41SF; • Siemens Refrigerator, KK25E76TI.
(§4) • 1. Cell Culture and Inoculation: • (1) Harvest cells in a logarithmic growth phase and count the cells using a […]. Test cell viability using a trypan blue exclusion method to ensure that cell viability is above 90%. • (2) Adjust the cell concentration to desired final density; and add 90 µL of cell suspension to a 96-well plate. • (3) Incubate the cells overnight at 37°C, under 5% CO2 and 95% humidity in the 96-well plate. • 2. T0 Reference Data: • (1) Add 10 µL PBS to each well of the T0 plate containing cells. • (2) Thaw the CTG reagent and equilibrate the plate to room temperature for 30 minutes. • (3) Add an equal volume of CTG solution to each well. • (4) Lyse cells by shaking on an orbital shaker for 5 minutes. • (5) Leave the plate at room temperature for 20 minutes to stabilize the luminescence signal. • (6) Read the T0 […]. • 3. Compound Dilution and Addition • (1) Add a corresponding volume of DMSO to a corresponding compound powder according to the compound information sheet to prepare a 10 mM stock solution. • (2) Prepare 1000-fold and 3.16-fold diluted compound solutions. • (3) Dilute the 1000× diluted compound solution 100-fold with PBS to prepare a 10-fold compound solution, with a maximum concentration of 10 µM, nine concentrations and 3.16-fold dilution. Then add 10 µL of the drug solution concentration to individual wells of the 96-well plate seeded with cells. Test each compound concentration in triplicate wells, and the final DMSO concentration is 0.1%. • (4) Incubate the cells in the 96-well plate containing the drug compounds at 37°C, under 5% CO2, and 95% humidity for an additional 72 hour period prior to performing the CTG analysis. • 4. Fluorescence Signal Reading • (1) Thaw the CTG reagent and equilibrate the plate to room temperature for 30 minutes. • (2) Add an equal volume of CTG solution to each well. • (3) Lyse cells by shaking on an orbital shaker for 5 minutes. • (4) Leave the plate at room temperature for 20 minutes to stabilize the […]. • (5) Read fluorescence value. • 5. Data Processing
(§5) Analyze the data by using GraphPad Prism 7.0 software, and use Non-linear S-curve regression to fit the dose-response curves, to calculate the IC50 values (in nM). The specific experiment results are presented in Table 1: [formula] Table 1: Biology Test Results

[3] = system: Ba/F3 EGFR-L858R-C797S (LC); assay: Cell proliferation assay (CellTiter-Glo), Ba/F3 LC; format: cell-based; conditions: Mus musculus, BaF3; Ba/F3 EGFR-L858R-C797S cells, 72 hour incubation, CTG readout
Outline: as §1

[4] = system: Ba/F3 EGFR-DEL19-C797S (DC); assay: Cell proliferation assay (CellTiter-Glo), Ba/F3 DC; format: cell-based; conditions: Mus musculus, BaF3; Ba/F3 EGFR-DEL19-C797S cells, 72 hour incubation, CTG readout
Protocol: as §2, §3, §4, §5

[5] = Pharmacokinetic experiment in mice; format: in vivo; conditions: ICR mice; for AUC(0-t) / Cmax / half-life: male, mouse, single oral administration (PO), 10 mg/kg, plasma
Text: The purpose of this trial is to study the pharmacokinetic behavior of some compounds of the present invention, and the administration method is: Single oral administration (PO) to ICR mice.
The compounds used in this trial are from the compounds in the specific examples of the present invention and the listed positive compounds.
ICR mice male N=9 original source: Shanghai Sippr-Bk Lab Animal Co., Ltd.
The compounds are weighed and dissolved in the corresponding solution (10% PG + 10% Solutol® + 80% pH3 citrate buffer). The mixture is then shaken well and sonicated to prepare a 1 mg/mL stock solution. Nine mice are orally administered at a dose of 10 mg/kg (or IV 2 mg/kg) after an overnight fast.
About 90 µL of blood is collected via the submandibular vein per time point, heparin sodium anticoagulant is added, the sample is placed on ice after collection, and plasma is centrifuged within 1 hour (centrifugation conditions: 8,000 rpm, 6 minutes, 2-8°C). The blood collection timepoints are 0, 0.25, 0.5, 1, 2, 4, 6, 8 and 24 h. The samples are stored in a -20°C refrigerator.
The plasma sample is 40 µL, 160 µL of ice-cold acetonitrile containing internal standard is added, vortexed for 3 minutes, and centrifuged at 11,000 rpm for 5 minutes. 100 µL of the supernatant is taken and added to 100 µL of water, 5 µL of the sample is taken and injected into LC/MS/MS for analysis.

SMILES	IC50 (A431 WT)	IC50 [1]	IC50 [2]	IC50 [3]	IC50 [4]	AUC(0-t) [5]	Cmax [5]	half-life [5]	Oral F ([5]; PO 10 mg/kg (IV 2 mg/kg))
CN1CCC(C#Cc2nn3c4cc(ncc24)Nc2ccnc(n2)-c2cnn(C)c2OCC2(CCCC2)C3)CC1 [Example 1, 1'-methyl-3'-((1-methylpiperidin-4-yl)ethynyl)spiro(cyclopentane-1,6'-8-oxa-3-aza-4(6,1)-pyrazolo[4,3-c]pyridina-2(2,4)-pyrimidina-1(4,5)-pyrazolacyclooctaphane)]	323 nM	10.5 nM	7.2 nM	17.4 nM	7.9 nM	1030 ng·h/mL	88.2 ng/mL	3.5 h	
CN1CCC(C#Cc2nn3c4cc(ncc24)Nc2ccnc(n2)-c2cnn(C)c2OCC2(CCCCC2)C3)CC1 [Example 3, 1'-methyl-3'-((1-methylpiperidin-4-yl)ethynyl)spiro(cyclohexane-1,6'-8-oxa-3-aza-4(6,1)-pyrazolo[4,3-c]pyridina-2(2,4)-pyrimidina-1(4,5)-pyrazolacyclooctaphane)]	439 nM	10.4 nM	6.8 nM	30.6 nM	19.4 nM	3920 ng·h/mL	307 ng/mL	5.6 h	
Cn1ncc2c1OCC1(CCCC1)Cn1nc(N3CC[C@@H](C(C)(C)O)C3)c3cnc(cc31)Nc1ccnc-2n1 [Example 13, (R)-2-(1-(1'-methylspiro[cyclopentane-1,6'-8-oxa-3-aza-4(6,1)-pyrazolo[4,3-c]pyridina-2(2,4)-pyrimidina-1(4,5)-pyrazolacyclooctaphane]-3'-yl)pyrrolidin-3-yl)propan-2-ol]	794 nM	14.9 nM	8.4 nM	25.5 nM	14.8 nM	8870 ng·h/mL	1540 ng/mL	2.2 h	
Cn1ncc2c1OCC1(CCCC1)Cn1nc(N3CC[C@H](CS(=O)(=O)C(F)(F)F)C3)c3cnc(cc31)Nc1ccnc-2n1 [Example 14, (S)-1'-methyl-3'-(3-(((trifluoromethyl)sulfonyl)methyl)pyrrolidin-1-yl)spiro[cyclopentane-1,6'-8-oxa-3-aza-4(6,1)-pyrazolo[4,3-c]pyridina-2(2,4)-pyrimidina-1(4,5)-pyrazolacyclooctaphane]]	1720 nM	3.6 nM	3.5 nM	5 nM	2.8 nM	5320 ng·h/mL	882 ng/mL	2.4 h	
CCS(=O)(=O)C[C@@H]1CCN(c2nn3c4cc(ncc24)Nc2ccnc(n2)-c2cnn(C)c2OCC2(CCCC2)C3)C1 [Example 29, (R)-3' -(3-((ethylsulfonyl)methyl)pyrrolidin-1-yl)-1'-me thylspiro(cyclopentane-1,6' -8-oxa-3-aza-4(6,1)-pyrazolo[4,3-c]pyridina-2(2,4)-pyrimidina-1(4,5)-pyrazolacyclooctaphane)]	622 nM	4 nM	1.8 nM	9.6 nM	1.6 nM	4540 ng·h/mL	1400 ng/mL	0.66 h	
Cn1ncc2c1OCC1(CCCC1)Cn1nc(N3CC[C@H](CS(C)(=O)=O)C3)c3cnc(cc31)Nc1ccnc-2n1 [Example 34, (S)-1'methyl-3'-(3-((methylsulfonyl)methyl)pyrrolidin-1-yl)spiro(cyclopentane-1,6 '-8-oxa-3-aza-4(6,1)-pyrazolo[4,3-c]pyridina-2(2,4)-pyrimidina-1(4,5)-pyrazolacyclooctaphane)]	375 nM	1.4 nM	1.6 nM	2.7 nM	0.7 nM	2390 ng·h/mL	694 ng/mL	4.7 h	
CCS(=O)(=O)C[C@H]1CCN(c2nn3c4cc(ncc24)Nc2ccnc(n2)-c2cnn(C)c2OCC2(CCCC2)C3)C1 [Example 35, (S)-3'-(3-((ethylsulfonyl)methyl)pyrrolidin-1-yl)-1'-met hylspiro(cyclopentane-1,6'-8-oxa-3-aza-4(6,1)-pyrazolo [4,3-c]pyridina-2(2,4)-pyrimidina-1(4,5)-pyrazolacyclooctaphane)]	345 nM	1 nM	0.7 nM	2.2 nM	0.9 nM	5570 ng·h/mL	1500 ng/mL	2.6 h	81.5%
CCS(=O)(=O)C[C@H]1CCN(c2nn3c4cc(ncc24)Nc2ccnc(n2)-c2cnn(C)c2OCC2(CCCCC2)C3)C1 [Example 37, (S)-1'-methyl-3'-(3-((ethylsulfonyl)methyl)pyrrolidin-1-yl)spiro(cyclohexane-1,6'-8-oxa-3-aza-4(6,1)-pyrazolo [4,3-c]pyridina-2(2,4)-pyrimidina-1(4,5)-pyrazolacyclooctaphane)]	554 nM	6.4 nM	3.2 nM	15.8 nM	6.1 nM	10100 ng·h/mL	2070 ng/mL	3.1 h	
CC(C)S(=O)(=O)C[C@H]1CCN(c2nn3c4cc(ncc24)Nc2ccnc(n2)-c2cnn(C)c2OCC2(CCCC2)C3)C1 [Example 39, (S)-3'-(3-((isopropylsulfonyl)methyl)pyrrolidin-1-yl)-1' -methylspiro(cyclopentane-1,6'-8-oxa-3-aza-4(6,1)-pyrazolo[4,3-c]pyridina-2(2,4)-pyrimidina-1(4,5)-pyrazolacyclooctaphane)]	446 nM	0.8 nM	1.5 nM	2.1 nM	2.3 nM	6080 ng·h/mL	1560 ng/mL	3 h	
Cn1ncc2c1OCC1(CCCCC1)Cn1nc(N3CC[C@H](CS(=O)(=O)C4CC4)C3)c3cnc(cc31)Nc1ccnc-2n1 [Example 41, (S)-3'-(3-((cyclopropylsulfonyl)methyl)pyrrolidin-1-yl)-1'-methylspiro(cyclohexane-1,6'-8-oxa-3-aza-4(6,1)-pyrazolo[4,3-c]pyridina-2(2,4) -pyrimidina-1(4,5)-pyrazolacyclooctaphane)]	564 nM	3.1 nM	5.2 nM	12.9 nM	15.9 nM	7110 ng·h/mL	1920 ng/mL	2.3 h	
